Measurements: PubChem BioAssay AID248 (DTP/NCI, 2004)
Several values for one entry are separate records, joined by “and”; a condition that tells them apart may be missing. Identical values can stand only once. Inconclusive results and toxic doses are left out. Cut-off read from the data, not from the text of the source: active = T/C of 150% or more; inactive = T/C below 125%.

Tested on: L1210 leukemia ip in BDF1 mice, survival T/C
Experiment: NCI In Vivo Anticancer Drug Screen. Data for tumor model L1210 Leukemia (intraperitoneal) in B6D2F1 (BDF1) mice
Details: endpoint: mean survival time, higher = longer survival
Summary of the method: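 Survival endpoint. Drug-treated group vs vehicle group, expressed as T divided by C. Tumor passaged by transplantation.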

[1] = dose: 100.0 mg/kg/injection, schedule: Q01DX009 (ip), vehicle: Klucel (hydroxypropylcellulose) (HPC)
[2] = dose: 100.0 mg/kg/injection, schedule: Q04DX003 (ip), vehicle: Klucel (hydroxypropylcellulose) (HPC)
[3] = dose: 200.0 mg/kg/injection, schedule: Q01DX009 (ip), vehicle: Klucel (hydroxypropylcellulose) (HPC)
[4] = dose: 200.0 mg/kg/injection, schedule: Q04DX003 (ip), vehicle: Klucel (hydroxypropylcellulose) (HPC)
[5] = dose: 400.0 mg/kg/injection, schedule: Q04DX003 (ip), vehicle: Klucel (hydroxypropylcellulose) (HPC)
[6] = dose: 25.0 mg/kg/injection, schedule: Q01DX009 (ip), vehicle: saline
[7] = dose: 50.0 mg/kg/injection, schedule: Q01DX009 (ip), vehicle: saline
[8] = dose: 50.0 mg/kg/injection, schedule: Q04DX003 (ip), vehicle: saline
[9] = dose: 100.0 mg/kg/injection, schedule: Q01DX009 (ip), vehicle: saline
[10] = dose: 100.0 mg/kg/injection, schedule: Q04DX003 (ip), vehicle: saline
[11] = dose: 100.0 mg/kg/injection, schedule: Q01DX001 (ip), vehicle: saline
[12] = dose: 200.0 mg/kg/injection, schedule: Q04DX003 (ip), vehicle: saline

Measured: T/C

CC(=O)Nc1cccc(C[P+](c2ccccc2)(c2ccccc2)c2ccccc2)c1
inactive: dose: 5.0 mg/kg/injection, schedule: Q01DX001 (ip), vehicle: carboxymethylcellulose (CMC) 95 % of control | dose: 10.0 mg/kg/injection, schedule: Q01DX001 (ip), vehicle: carboxymethylcellulose (CMC) 98 % of control | dose: 20.0 mg/kg/injection, schedule: Q01DX001 (ip), vehicle: carboxymethylcellulose (CMC) 95 % of control | dose: 40.0 mg/kg/injection, schedule: Q01DX001 (ip), vehicle: carboxymethylcellulose (CMC) 95 % of control | dose: 80.0 mg/kg/injection, schedule: Q01DX001 (ip), vehicle: carboxymethylcellulose (CMC) 93 % of control | dose: 100.0 mg/kg/injection, schedule: Q01DX001 (ip), vehicle: carboxymethylcellulose (CMC) 97 % of control | dose: 200.0 mg/kg/injection, schedule: Q01DX001 (ip), vehicle: carboxymethylcellulose (CMC) 90 % of control

COc1ccc(COC2C(O)C(CO)OC2n2ccc(N)nc2=O)cc1 (stereo unspecified)
inactive: dose: 12.5 mg/kg/injection, schedule: Q01DX005 (ip), vehicle: saline 103 % of control | dose: 25.0 mg/kg/injection, schedule: Q01DX005 (ip), vehicle: saline 100 % of control | dose: 50.0 mg/kg/injection, schedule: Q01DX005 (ip), vehicle: saline 94 % of control | dose: 100.0 mg/kg/injection, schedule: Q01DX005 (ip), vehicle: saline 107 % of control

CSC(=NC#N)SC
inactive: dose: 1.5 mg/kg/injection, schedule: Q01DX009 (ip), vehicle: Klucel (hydroxypropylcellulose) (HPC) 100 % of control | dose: 1.5 mg/kg/injection, schedule: Q04DX003 (ip), vehicle: Klucel (hydroxypropylcellulose) (HPC) 100 % of control | dose: 3.0 mg/kg/injection, schedule: Q01DX009 (ip), vehicle: Klucel (hydroxypropylcellulose) (HPC) 101 % of control | dose: 3.0 mg/kg/injection, schedule: Q04DX003 (ip), vehicle: Klucel (hydroxypropylcellulose) (HPC) 90 % of control | dose: 6.0 mg/kg/injection, schedule: Q01DX009 (ip), vehicle: Klucel (hydroxypropylcellulose) (HPC) 95 % of control | dose: 6.0 mg/kg/injection, schedule: Q04DX003 (ip), vehicle: Klucel (hydroxypropylcellulose) (HPC) 97 % of control

Cc1cc2c(c(NC(=O)NCCCl)c1C)CCCC2
inactive: [1] 92 % of control | [2] 105 % of control | [3] 100 % of control | [4] 96 % of control | dose: 400.0 mg/kg/injection, schedule: Q01DX009 (ip), vehicle: Klucel (hydroxypropylcellulose) (HPC) 91 % of control | [5] 103 % of control

O=C(O)c1ccc2c([N+](=O)[O-])cccc2n1
inactive: [1] 100 % of control | [2] 96 % of control | [3] 97 % of control | [4] 107 % of control | [5] 93 % of control

O=c1ccccn1CCc1ccccc1
inactive: dose: 12.5 mg/kg/injection, schedule: Q04DX003 (ip), vehicle: saline with Tween-80 95 % of control | dose: 25.0 mg/kg/injection, schedule: Q04DX003 (ip), vehicle: saline with Tween-80 101 % of control | dose: 50.0 mg/kg/injection, schedule: Q04DX003 (ip), vehicle: saline with Tween-80 97 % of control

CC(C)=CCNc1ncnc2c1c(C#N)cn2C1OC(CO)C(O)C1O (stereo unspecified)
inactive: dose: 0.78 mg/kg/injection, schedule: Q01DX009 (ip), vehicle: saline 95 % of control | dose: 1.56 mg/kg/injection, schedule: Q01DX005 (ip), vehicle: saline 106 % of control | dose: 1.56 mg/kg/injection, schedule: Q01DX009 (ip), vehicle: saline 95 % of control | dose: 3.12 mg/kg/injection, schedule: Q01DX009 (ip), vehicle: saline 97 % of control

CC(C)=CCC/C(C)=C/COC(=O)C(CC=C(C)C)CCN1CCN(C)CC1 (stereo unspecified)
inactive: [2] 104 % of control | [4] 93 % of control | [5] 104 % of control

Cc1ccc(Nc2cc(Cl)nc(N)n2)cc1Cl
inactive: dose: 100.0 mg/kg/injection, schedule: Q01DX Z (ip), vehicle: methylcellulose (MC) 97 % of control | dose: 200.0 mg/kg/injection, schedule: Q01DX Z (ip), vehicle: methylcellulose (MC) 100 % of control

C=C[C+](CCCC)C(=O)[O-]
inactive: [6] 95 % of control | [7] 92 % of control | [8] 98 % of control | dose: 100.0 mg/kg/injection, schedule: Q01DX001 (ip), vehicle: acetone 96 % of control | [9] 87 % of control | [10] 93 % of control | dose: 150.0 mg/kg/injection, schedule: Q01DX009 (ip), vehicle: saline 101 % of control | dose: 200.0 mg/kg/injection, schedule: Q01DX001 (ip), vehicle: acetone 95 % of control | dose: 225.0 mg/kg/injection, schedule: Q01DX009 (ip), vehicle: saline 98 % of control

CCCC(=O)N1CCC(C)CC1
inactive: dose: 50.0 mg/kg/injection, schedule: Q01DX001 (ip), vehicle: saline 103 % of control | [7] 97 % of control and 98 % of control | dose: 50.0 mg/kg/injection, schedule: Q04DX002 (ip), vehicle: saline 112 % of control | [8] 100 % of control | [11] 100 % of control | [9] 98 % of control | dose: 100.0 mg/kg/injection, schedule: Q04DX002 (ip), vehicle: saline 102 % of control | [10] 107 % of control | dose: 200.0 mg/kg/injection, schedule: Q01DX001 (ip), vehicle: saline 103 % of control | dose: 200.0 mg/kg/injection, schedule: Q01DX009 (ip), vehicle: saline 94 % of control and 113 % of control | dose: 200.0 mg/kg/injection, schedule: Q04DX002 (ip), vehicle: saline 102 % of control | [12] 95 % of control

N#C/C(=N\Nc1ccc(S(=O)(=O)O)cc1)C(N)=O
inactive: [10] 104 % of control | [12] 100 % of control | dose: 400.0 mg/kg/injection, schedule: Q04DX003 (ip), vehicle: saline 98 % of control

CCSc1ncc(C)c(Cl)n1
inactive: dose: 100.0 mg/kg/injection, schedule: Q01DX009 (ip), vehicle: water 103 % of control | dose: 100.0 mg/kg/injection, schedule: Q04DX003 (ip), vehicle: water 100 % of control | dose: 200.0 mg/kg/injection, schedule: Q01DX009 (ip), vehicle: water 94 % of control | dose: 200.0 mg/kg/injection, schedule: Q04DX003 (ip), vehicle: water 108 % of control | dose: 400.0 mg/kg/injection, schedule: Q01DX009 (ip), vehicle: water 100 % of control | dose: 400.0 mg/kg/injection, schedule: Q04DX003 (ip), vehicle: water 100 % of control

CNCC(C)(C)c1ccccc1
inactive: dose: 6.25 mg/kg/injection, schedule: Q01DX009 (ip), vehicle: saline 101 % of control | dose: 12.5 mg/kg/injection, schedule: Q01DX009 (ip), vehicle: saline 101 % of control | [6] 102 % of control | dose: 25.0 mg/kg/injection, schedule: Q04DX003 (ip), vehicle: saline 104 % of control | [7] 107 % of control | [8] 104 % of control | [9] 104 % of control | [10] 106 % of control

CCc1cc(C)cc(OC(=O)Nc2cc(Cl)ccc2OC)c1
inactive: dose: 100.0 mg/kg/injection, schedule: Q01DX001 (ip), vehicle: saline with Tween-80 104 % of control | dose: 100.0 mg/kg/injection, schedule: Q01DX009 (ip), vehicle: saline with Tween-80 95 % of control | dose: 100.0 mg/kg/injection, schedule: Q04DX002 (ip), vehicle: saline with Tween-80 94 % of control and 95 % of control | dose: 200.0 mg/kg/injection, schedule: Q01DX001 (ip), vehicle: saline with Tween-80 93 % of control | dose: 200.0 mg/kg/injection, schedule: Q01DX009 (ip), vehicle: saline with Tween-80 93 % of control | dose: 200.0 mg/kg/injection, schedule: Q04DX002 (ip), vehicle: saline with Tween-80 95 % of control and 90 % of control | dose: 400.0 mg/kg/injection, schedule: Q01DX001 (ip), vehicle: saline with Tween-80 95 % of control | dose: 400.0 mg/kg/injection, schedule: Q01DX009 (ip), vehicle: saline with Tween-80 119 % of control | dose: 400.0 mg/kg/injection, schedule: Q04DX002 (ip), vehicle: saline with Tween-80 95 % of control and 86 % of control

CC(=O)c1cc(C(C)=O)c2cc(C)cc(O)c2c1O
inactive: [11] 103 % of control

NC(N)=N/N=C/c1c2ccccc2cc2ccccc12
inactive: dose: 15.0 mg/kg/injection, schedule: Q01DX Z (ip), vehicle: carboxymethylcellulose (CMC) 101 % of control | dose: 30.0 mg/kg/injection, schedule: Q01DX Z (ip), vehicle: carboxymethylcellulose (CMC) 101 % of control | dose: 240.0 mg/kg/injection, schedule: Q01DX Z (oral), vehicle: carboxymethylcellulose (CMC) 104 % of control
